Results from patent US20200276181A1, “THIENOISOQUINOLINES AND THEIR DERIVATIVES FOR TARGETING TUBULIN, CH-TOG, AURORA A KINASE, TPX2, CDK5RAP2 AND/OR ASPM” (VALORBEC, SEC, priority 2017, published 2020).

Tests used:
[1] = molecular target: T1, GFP-tagged ch-TOG (CKAP5) (Homo sapiens, UniProt Q14008); assay: GFP-tagged ch-TOG localization; assay type: cell-based; conditions: mitotic HeLa cells vs non-treated
T1 construct: expressed in transfected cells; host or cells: HeLa
Procedure: As shown in FIG. 2L and FIG. 6, in HeLa cells expressing SiR-tubulin or GFP-tagged ch-TOG (CKAP5), which localizes to centrosomes, the addition of 100-300 nM of C75 causes the spindle poles to collapse together in metaphase cells within 1-2 minutes. The spindles recover, but become uneven or multipolar.
ch-TOG contains multiple TOG domains that bind to tubulin dimers, and a microtubule-binding domain that binds to the microtubule lattice. If C75 were to bind and inhibit one or more of the TOG domains, this would shift its affinity onto microtubules, while inhibiting the microtubule domain would cause ch-TOG to become cytosolic.

HeLa cells [2] = assay: Spindle morphology, fixed cells stained for tubulin and DAPI; assay type: cell-based, human
Procedure: FIG. 1A) is a line graph showing changes in the percentage of viable HFF-1, HeLa, A549 and HCT 116 cells after treatment with a range of C75 concentrations for 3 population doubling times (N=3). […] There were more rounded mitotic cells after C75 treatment in comparison to the control. FIG. 1C) is a line graph showing the percentage of HeLa and HFF1 cells in mitosis after treatment with various concentrations of C75 for 8 hours. The bars indicate standard deviation. FIG. 1D) is a series of images showing cells that were fixed and co-stained for tubulin (microtubules) and DAPI (DNA). Treatment of HeLa cells with 300 nM C75 caused the mitotic spindles to be disorganized, while they were not affected in HFF1 cells. […] The scale bar for the cells is 10 μm. […] FIG. 1F) is a cartoon schematic showing the key features of a metaphase cell.
The images in FIG. 1B) show fields of view of HeLa cells treated with (dimethyl sulfoxide) DMSO or 500 nM of C75. […] Higher concentrations of C75 caused spindle phenotypes in HFF1 cells, but they were quite different in comparison to HeLa cells (FIG. 1D).

[3] = system: HCT116 cells with lower levels of endogenous MCAK (MCAK RNAi); assay: Spindle phenotypes with MCAK RNAi; assay type: cell-based; conditions: 300 nM C75
Procedure: FIG. 9A) is a series of images of HCT116 cells with lower levels of endogenous MCAK (MCAK RNAi), stained for DAPI (DNA) and tubulin (microtubules), and treated with 300 nM C75 or control. FIG. 9B) is a bar graph showing the proportion of spindle phenotypes in HCT116 cells treated as in 9A). The multipolar spindle phenotypes caused by C75 are suppressed by MCAK RNAi.
It was observed that the proportion of multipolar spindles caused by C75 are decreased after MCAK depletion.

A549 cells = assay: Viability IC50 of C75 in combination with subthreshold colchicine; assay type: cell-based, human; conditions: + 9 nM colchicine
HCT 116 cells = assay: Spindle phenotypes, paclitaxel and C75 combination; assay type: cell-based; conditions: 7 hours, at 100 and 200 nM
Procedure: FIG. 3A) is a line graph showing cytotoxicity of HeLa cells after treatment with varying concentrations of C75+/−a subthreshold dose of paclitaxel (Taxol™; 3 nM). The IC50 is shown by the dotted line. Bars show standard deviation. FIG. 3B) is a line graph showing the percentage of mitotic HeLa or HFF1 cells treated with a range of paclitaxel concentrations+/−C75 as indicated. The bars indicate standard deviation. FIG. 3C) is a series of bar graphs showing the proportion of HCT 116 cells with bipolar aligned (grey), bipolar misaligned (dark grey), multipolar/fragmented (light grey, top portion of each bar) or monopolar (black) spindles 7 hours after treatment with control (DMSO), varying concentrations of paclitaxel or C75, or both as indicated (n=691; N=3). The bars show standard deviation. The combination treatments were compared to paclitaxel and C75 on their own by calculating ratios varying from the predicted ratio, and found to synergize at 100 and 200 nM. FIG. 3D) is bar graph showing the average distance between centrosome fragments in HCT116 cells after treatments as shown. While centrosome fragments moved closer together with increased concentrations of paclitaxel, they moved further apart with increased concentrations of C75 (n=105; N=3). […]

HeLa cells [4] = assay: Percentage of mitotic cells, nocodazole +/- C75; assay type: cell-based, human; conditions: 200 nM C75 + 33 or 66 nM nocodazole

T1 sequence (Q14008 whole entry): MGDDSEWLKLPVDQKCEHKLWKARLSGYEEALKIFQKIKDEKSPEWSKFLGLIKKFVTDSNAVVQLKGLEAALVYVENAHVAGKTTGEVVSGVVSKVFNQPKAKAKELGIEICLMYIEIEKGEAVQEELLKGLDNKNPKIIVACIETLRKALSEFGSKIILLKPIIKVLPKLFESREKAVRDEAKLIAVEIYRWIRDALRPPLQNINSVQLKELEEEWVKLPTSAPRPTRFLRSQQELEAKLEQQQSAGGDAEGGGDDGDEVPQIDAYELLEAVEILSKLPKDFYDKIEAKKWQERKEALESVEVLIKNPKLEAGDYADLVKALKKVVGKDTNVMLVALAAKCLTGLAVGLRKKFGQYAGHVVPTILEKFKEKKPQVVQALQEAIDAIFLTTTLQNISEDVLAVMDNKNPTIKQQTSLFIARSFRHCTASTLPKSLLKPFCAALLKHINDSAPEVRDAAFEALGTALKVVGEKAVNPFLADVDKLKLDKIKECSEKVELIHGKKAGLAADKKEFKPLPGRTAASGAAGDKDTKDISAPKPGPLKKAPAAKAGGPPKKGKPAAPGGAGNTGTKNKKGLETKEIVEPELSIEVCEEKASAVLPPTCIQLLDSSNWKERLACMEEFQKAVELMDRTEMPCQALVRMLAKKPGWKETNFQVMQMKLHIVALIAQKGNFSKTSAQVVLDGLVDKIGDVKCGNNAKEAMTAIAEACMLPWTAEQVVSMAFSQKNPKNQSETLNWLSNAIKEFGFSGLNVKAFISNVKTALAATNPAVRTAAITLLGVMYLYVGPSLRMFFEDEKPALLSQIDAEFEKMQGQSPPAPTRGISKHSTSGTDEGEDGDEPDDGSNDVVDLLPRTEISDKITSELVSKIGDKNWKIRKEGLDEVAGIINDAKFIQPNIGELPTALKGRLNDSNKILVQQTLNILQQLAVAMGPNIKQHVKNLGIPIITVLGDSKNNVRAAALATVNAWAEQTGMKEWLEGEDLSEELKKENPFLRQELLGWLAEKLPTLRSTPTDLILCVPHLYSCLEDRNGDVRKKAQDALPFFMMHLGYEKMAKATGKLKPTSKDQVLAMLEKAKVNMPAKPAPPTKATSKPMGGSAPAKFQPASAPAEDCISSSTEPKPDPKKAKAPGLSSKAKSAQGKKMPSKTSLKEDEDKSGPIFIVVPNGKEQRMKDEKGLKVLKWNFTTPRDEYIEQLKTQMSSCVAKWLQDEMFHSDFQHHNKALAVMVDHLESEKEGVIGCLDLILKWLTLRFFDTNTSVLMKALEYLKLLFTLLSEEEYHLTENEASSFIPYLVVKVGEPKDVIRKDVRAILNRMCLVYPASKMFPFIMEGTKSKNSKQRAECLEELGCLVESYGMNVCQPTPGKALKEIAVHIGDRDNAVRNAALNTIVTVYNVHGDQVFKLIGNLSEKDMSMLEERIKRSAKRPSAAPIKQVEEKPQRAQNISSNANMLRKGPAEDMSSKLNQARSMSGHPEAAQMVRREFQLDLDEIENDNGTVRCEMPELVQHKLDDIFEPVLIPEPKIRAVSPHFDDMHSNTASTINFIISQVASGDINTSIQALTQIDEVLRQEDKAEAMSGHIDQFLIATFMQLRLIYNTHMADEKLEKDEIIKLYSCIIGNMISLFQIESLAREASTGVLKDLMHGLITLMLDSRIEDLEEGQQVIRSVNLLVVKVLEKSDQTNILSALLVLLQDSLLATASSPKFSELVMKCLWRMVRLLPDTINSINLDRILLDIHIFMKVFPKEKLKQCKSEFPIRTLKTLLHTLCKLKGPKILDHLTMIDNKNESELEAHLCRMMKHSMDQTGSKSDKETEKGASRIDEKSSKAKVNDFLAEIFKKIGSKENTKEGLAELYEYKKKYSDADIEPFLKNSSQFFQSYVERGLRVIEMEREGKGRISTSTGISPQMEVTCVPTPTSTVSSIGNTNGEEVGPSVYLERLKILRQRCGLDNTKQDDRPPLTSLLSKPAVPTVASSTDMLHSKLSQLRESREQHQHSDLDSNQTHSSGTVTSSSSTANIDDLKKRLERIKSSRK

SMILES: COc1ccc(S(=O)(=O)N2Cc3ccccc3-c3sc(Br)cc32)cc1 [Compound C75]
- ch-TOG localization after treatment [1]: enriched at the centrosomes
- mitotic spindle morphology (HeLa cells [2]; 300 nM): spindle organization was perturbed
- mitotic spindle morphology (HeLa cells [2]; 750 nM): Centrosomes were fragmented or declustered and microtubules were completely absent
- suppression of multipolar spindle phenotypes by MCAK RNAi [3]: suppressed
- lowering of the IC50 of C75 by subthreshold colchicine (A549 cells): ~2 fold
- combination with paclitaxel vs each alone, spindle phenotypes (HCT 116 cells): synergize
- change in proportion of mitotic cells (HeLa cells [4]): large change
